Laboratory results from ChEMBL document CHEMBL1201862, “PubChem BioAssay data set” (2004).
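Tested at 5 concentrations; 48 h exposure; 96-well plates; endpoints linearly interpolated, else capped at highest concentration. GI50 = concentration required for 50% inhibition of growth.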 Activity calls are given as the source filed them. No stated cut-off is given here; in the data, active = GI50 up to about 1.1 µM and inactive = higher.

Tests used:
Assay in all cases: DTP human tumour cell line panel, 48 h
M14 = system: M14
KM12 = system: KM12
HCT-15 = system: HCT-15
MDA-N = system: MDA-N
IGROV-1 = system: IGROV-1
PC-3 = system: PC-3
A498 = system: A498
HOP-62 = system: HOP-62
SNB-75 = system: SNB-75
MOLT-4 = system: MOLT-4
SK-OV-3 = system: SK-OV-3
RPMI-8226 = system: RPMI-8226
OVCAR-5 = system: OVCAR-5
CCRF-CEM = system: CCRF-CEM
HOP-92 = system: HOP-92
HCC 2998 = system: HCC 2998
MDA-MB-231 = system: MDA-MB-231
Malme-3M = system: Malme-3M
CAKI-1 = system: CAKI-1
MDA-MB-435 = system: MDA-MB-435
NCI-H460 = system: NCI-H460
SF-539 = system: SF-539
ACHN = system: ACHN
UACC-257 = system: UACC-257
SK-MEL-5 = system: SK-MEL-5
SN12C = system: SN12C
SF-295 = system: SF-295
TK-10 = system: TK-10
NCI/ADR-RES = system: NCI/ADR-RES
DU-145 = system: DU-145
SR = system: SR
OVCAR-8 = system: OVCAR-8
U-251 = system: U-251
HT-29 = system: HT-29
A549 = system: A549
UACC-62 = system: UACC-62
EKVX = system: EKVX
HCT-116 = system: HCT-116
NCI-H226 = system: NCI-H226
COLO 205 = system: COLO 205
K562 = system: K562
SK-MEL-2 = system: SK-MEL-2
786-0 = system: 786-0
OVCAR-3 = system: OVCAR-3
SNB-19 = system: SNB-19
OVCAR-4 = system: OVCAR-4
NCI-H522 = system: NCI-H522
NCI-H23 = system: NCI-H23
MCF7 = system: MCF7
BT-549 = system: BT-549
Hs-578T = system: Hs-578T
SK-MEL-28 = system: SK-MEL-28
SF-268 = system: SF-268
LOX IMVI = system: LOX IMVI
RXF 393 = system: RXF 393
HL-60 = system: HL-60
SW-620 = system: SW-620

Cc1cccc2c(=O)c3c(O)cc4c(c3n(C)c12)C=CC(C)(C)O4
GI50 (M14): 28.3 µM (inactive)
GI50 (KM12): 29 µM (inactive)
GI50 (HCT-15): 18.7 µM
GI50 (MDA-N): 35.6 µM (inactive)
GI50 (IGROV-1): > 100 µM (inactive)
GI50 (PC-3): 91.8 µM (inactive)
GI50 (A498): > 100 µM (inactive)
GI50 (HOP-62): > 100 µM (inactive)
GI50 (SNB-75): 97.5 µM (inactive)
GI50 (MOLT-4): 29.1 µM (inactive)
GI50 (SK-OV-3): > 100 µM (inactive)
GI50 (RPMI-8226): 9.02 µM (inactive)
GI50 (OVCAR-5): 59.3 µM (inactive)
GI50 (CCRF-CEM): 22.5 µM (inactive)
GI50 (HOP-92): 21.6 µM (inactive)
GI50 (HCC 2998): > 100 µM (inactive)
GI50 (MDA-MB-231): > 100 µM (inactive)
GI50 (Malme-3M): > 100 µM (inactive)
GI50 (CAKI-1): > 100 µM (inactive)
GI50 (MDA-MB-435): 70.5 µM (inactive)
GI50 (NCI-H460): 31.2 µM (inactive)
GI50 (SF-539): 87.5 µM (inactive)
GI50 (ACHN): > 100 µM (inactive)
GI50 (UACC-257): 60.1 µM (inactive)
GI50 (SK-MEL-5): 29.9 µM (inactive)
GI50 (SN12C): > 100 µM (inactive)
GI50 (SF-295): 25.1 µM (inactive)
GI50 (TK-10): > 100 µM (inactive)
GI50 (NCI/ADR-RES): 31.8 µM (inactive)
GI50 (DU-145): > 100 µM (inactive)
GI50 (SR): 10.4 µM (inactive)
GI50 (OVCAR-8): > 100 µM (inactive)
GI50 (U-251): > 100 µM (inactive)
GI50 (HT-29): 4.63 µM (inactive)
GI50 (A549): 77.6 µM (inactive)
GI50 (UACC-62): > 100 µM (inactive)
GI50 (EKVX): 25.6 µM (inactive)
GI50 (HCT-116): 58.9 µM (inactive)
GI50 (NCI-H226): 29.5 µM (inactive)
GI50 (COLO 205): 29 µM (inactive)
GI50 (K562): 11.2 µM (inactive)
GI50 (SK-MEL-2): > 100 µM (inactive)
GI50 (786-0): 71.8 µM (inactive)
GI50 (OVCAR-3): > 100 µM (inactive)
GI50 (SNB-19): > 100 µM (inactive)
GI50 (OVCAR-4): 43.9 µM (inactive)
GI50 (NCI-H522): > 100 µM (inactive)
GI50 (NCI-H23): 33 µM (inactive)
GI50 (MCF7): 32.7 µM (inactive)
GI50 (BT-549): 23.1 µM (inactive)
GI50 (Hs-578T): 39.4 µM (inactive)
GI50 (SK-MEL-28): > 100 µM (inactive)
GI50 (SF-268): > 100 µM (inactive)
GI50 (LOX IMVI): 40.3 µM (inactive)
GI50 (RXF 393): 5.93 µM (inactive)
GI50 (HL-60): 45.7 µM (inactive)
GI50 (SW-620): > 100 µM (inactive)
